Measured values: paper PMC5118987 (Antimicrobial Agents and Chemotherapy, 2016)

Key:
[1] = molecular target: T1, HIV-1 IN strand transfer activity (Human immunodeficiency virus type 1 group M subtype B, UniProt P04585); experiment: IN strand transfer assay (HTRF); assay type: biochemical; details: purified recombinant HIV-1 IN; mean ± SD, 3 experiments; read-out: IC50 Inhibition of strand transfer
T1 construct: Recombinant IN containing an N-terminal 6His tag was expressed in BL21(DE3) pLysS bacteria; 6His (N); made in house; host or cells: E. coli BL21(DE3) pLysS
Protocol: The strand transfer activity of IN was measured using an assay based on homogeneous time-resolved fluorescence resonance energy transfer (HTRF) ([34]) and has been previously described in detail ([35]). An HTRF-based 3′-processing assay was performed essentially as described for the IN strand transfer assay using a specially designed nonprocessed donor DNA in the absence of target DNA ([35]).

[2] = via inhibition of OCT2 in proximal tubule; cited from earlier work

**Q.** Which IC50 [1] does the source give for `O=C(NCc1c(F)cc(F)cc1F)c1cn2c(c(O)c1=O)C(=O)N1[C@H]3CC[C@H](C3)O[C@@H]1C2` [BIC, Bictegravir] here?
**A.** 7.5 ± 0.3 nM

**Q.** For `C[C@@H]1CCO[C@H]2Cn3cc(C(=O)NCc4ccc(F)cc4F)c(=O)c(O)c3C(=O)N12` [DTG, Dolutegravir], which “increase of human serum creatinine levels” value [2] is on record?
**A.** about 10%
